In article PMC11326381, “Structural Study of Selectivity Mechanisms for JNK3 and p38α with Indazole Scaffold Probing Compounds” (Research Square, 2024):

How the values were obtained:
JNK3 = JNK3 (Homo sapiens, UniProt P53779); assay: HTRF enzyme inhibition assay, JNK3; assay type: biochemical
Experimental: Homogeneous Time-resolved Fluorescence Assay (HTRF)
Enzyme inhibition assays to determine IC50 values for the kinases were performed as described previously.

JNK1 = details: cited from earlier work

Sequence of JNK3 (P53779 whole entry): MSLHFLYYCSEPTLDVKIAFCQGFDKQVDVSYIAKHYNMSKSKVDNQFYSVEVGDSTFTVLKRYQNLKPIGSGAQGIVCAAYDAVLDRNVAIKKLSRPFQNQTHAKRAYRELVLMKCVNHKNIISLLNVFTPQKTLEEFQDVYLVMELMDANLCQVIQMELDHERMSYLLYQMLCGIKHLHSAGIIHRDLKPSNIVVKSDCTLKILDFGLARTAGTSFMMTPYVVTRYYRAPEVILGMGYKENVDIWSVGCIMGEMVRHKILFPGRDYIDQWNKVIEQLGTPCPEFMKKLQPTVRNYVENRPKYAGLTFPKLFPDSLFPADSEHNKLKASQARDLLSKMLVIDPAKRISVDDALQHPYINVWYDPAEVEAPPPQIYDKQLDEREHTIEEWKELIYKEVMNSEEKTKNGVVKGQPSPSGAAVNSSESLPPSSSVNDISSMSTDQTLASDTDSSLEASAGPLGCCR

For `COc1ccccc1Nc1cc2cnn(-c3cc(C(=O)NC4COC4)sc3C)c2cc1F` [Compound 23GA], the IC50 (JNK3) was 1000 nM.
`COc1ccccc1Nc1cc2cnn(-c3csc(C(=O)NC4COC4)c3)c2cc1F` [Compound 23M] showed an IC50 (JNK3) of 14 nM.
For `Cc1ccc(-n2nc(C(C)(C)C)cc2NC(=O)Nc2ccc(OCCN3CCOCC3)c3ccccc23)cc1` [BIRB796], the “affinity for JNK1” value (JNK1) is listed as “no affinity”.
For `CNC(=O)c1cc(-n2ncc3cc(Nc4c(F)cccc4Cl)c(COC)cc32)cs1` [Compound 21J], the IC50 (JNK3) was 6 nM.
Work on `CNC(=O)c1cc(-n2ncc3cc(Nc4c(F)cccc4Cl)c(CN4CCC4)cc32)cs1` [Compound 21G] yielded an IC50 (JNK3) of 137 nM.
